Source: US11350582B2, “Plant varieties by application of endocides” (Stephen F. Austin State University, priority 2015, dated 2022)

What was measured:
[1] = test system: Salvinia molesta; experiment: Greenhouse spray test on giant salvinia, living biomass; assay type: in vivo; conditions: for type of new growth / decrease of living biomass weight compared to the water control: 1% concentration; for type of new growth: compound alone; for decrease of living biomass weight compared to the water control: nine days after the treatment; for Living Biomass (mean ± s.d.): 10 mL spray on three type III plants per container, day nine
Procedure: General Experimental Procedure: Observations of giant salvinia growth in a greenhouse were performed under 28 different treatment conditions and control conditions with NANOPURE™ water or 0.5% DYNE-AMIC® (methyl esters of C16-C18 fatty acids, polyalkyleneoxide modified polydimethylsiloxane, and alkylphenol ethoxylate 99%, (Helena, Collierville, Tenn., United States)) (v:v).
Materials—4-hydroxybenzoic acid (>95%, HPLC analysis) and 3,4-dihydroxybenzoic acid (>95%) were isolated from S. molesta matter using the method as described in (Li, Wang et al. 2013). Ethylparaben (>99%) was purchased from a commercial source. Each of 4-hydroxybenzoic acid, 3,4-dihydroxybenzoic acid, and ethylparaben were prepared as 50 mL experimental solutions with NANOPURE™ water at the concentration of 0.5, 1.0, 1.5, and 2.0%, respectively. 0.5, 1.0, 1.5, and 2.0% 4-hydroxybenzoic acid, 3,4-dihydroxybenzoic acid, and ethylparaben with 0.5% surfactant DYNE-AMIC® was also prepared as 50 mL experimental solutions with NANOPURE™ water. Mixtures of 4-hydroxybenzoic acid with 3,4-dihydroxybenzoic acid (2:1, w:w) were prepared as 50 mL experimental solutions with NANOPURE™ water at the total concentration of 0.5, 1.0, and 1.5%, respectively. 3,4-dihydroxybenzoic acid was mixed with ethylparaben (2:1, w:w) and prepared as 50 mL experimental solution with NANOPURE™ water at the total concentration of 0.5, 1.0, and 1.5%, respectively.
Bioassay—For each treatment, a total of nine healthy and untreated living plants of S. molesta (type III, the biomass of three plants weighs approximately 10 g) were cultured in tap water in three plastic containers severing as three replications (14×15 cm, 0.68 L) with three plants each in a greenhouse (30° C. during the day time and 20° C. at night). The three plants in each of the three containers per treatment were sprayed with 10 mL NANOPURE™ water, 0.5% DYNE-AMIC®, or the experimental solution. Plant growth and survival status were documented and photographed in each treatment on day nine after the treatment. Pairwise comparisons for all treatments (including Control) in living biomass were made using Tukey test at alpha=0.05, which was done using SAS (SAS 9.4).

[2] = test system: king protea explants; conditions: MS medium culture, cited from earlier work
[3] = test system: tobacco; conditions: from root exudates of tobacco; cited from earlier work
[4] = test system: S. molesta; experiment: Field test in isolated ponds, plots on water surface and soils (Example 17); assay type: in vivo, Salvinia molesta; conditions: 0.5% 4-hydroxybenzoic acid; for % of Living Biomass/Total Biomass (mean ± s.d.), Type I and II Plants on Water Surface / % of Living Biomass/Total Biomass (mean ± s.d.), Type III Plants on Soils: 12 days
Procedure: General Experimental Procedure: The field experiments were conducted in isolated ponds in east Texas, United States. The ponds are small (each were 200-500 m^2 in size) in the hardwood forests and each was fully covered with S. molesta plants and also included least duckweed (L. minuta) and Brazillan watermeal (W. brasillensis). The area was divided by plots, each plot had 50 m^2 in area including approximately 40 m^2 of type I and II S. molesta plants on the water surface and 10 m^2 of type III S. molesta plants on soils. Each plot, except a control plot, was treated with 20 L one of the following experimental solutions by Solo 433 motorized backpack sprayer: 0.5% 4-hydroxybenzoic acid, 0.5% 4-hydroxybenzoic acid mixed with 0.25% DAWN® dish soap, 0.5% 4-hydroxybenzoic acid and 0.25% 3,4-dihydroxybenzoic acid, 0.5% 4-hydroxybenzoic acid and 0.25% 3,4-dihydroxybenzoic acid with 0.25% DAWN® dish soap, and 0.25% DAWN® dish soap. Each test condition had three replicates. 12 days after the treatments, plant growth status was photographed and the plant survival rate was measured by three 1×1 m random sample plots for floating plants on the water surface and two samples in 1×1 m random sample plots for plants on soils. Pairwise comparisons for all treatments (including Control) for living biomass were made using Tukey test at alpha=0.05, which was done using SAS (SAS 9.4).

[5] = test system: rhizosphere bacterial population; conditions: cited from earlier work
[6] = test system: Fusarium oxysporum f. sp. niveum; conditions: cited from earlier work
[7] = test system: anthracnose pathogen and N-fixing bacteria in peanut; conditions: high concentrations; cited from earlier work
[8] = test system: taro; conditions: in vivo; cited from earlier work
[9] = test system: rhizosphere fungal populations; conditions: cited from earlier work
[10] = test system: leaf vegetables; conditions: in vivo; cited from earlier work
[11] = test system: Enterbacter ludwigii; conditions: cited from earlier work
[12] = test system: F. oxysporum, F. nivale, Aspergillus flavus, and A. fumigatus; conditions: cited from earlier work
[13] = listed as 4-hydroxybenzoic acid

Q: What does the source list for `O=C(O)c1ccc(O)c(O)c1` [3,4-dihydroxybenzoic acid]?
A: type of new growth [1]: type I only; decrease of living biomass weight compared to the water control [1]: 76.5%; Living Biomass (mean ± s.d.) ([1]; total concentration 0.5%): 17.1 g; Living Biomass (mean ± s.d.) ([1]; total concentration 1.0%): 9.2 g; Living Biomass (mean ± s.d.) ([1]; total concentration 1.5%): 14.3 g; Living Biomass (mean ± s.d.) ([1]; total concentration 2.0%): 5.8 g; effect on root mass of king protea explants ([2]; 100 mg/L): increase the root mass; effect on growth of king protea explants ([2]; 500 mg/L): inhibit growth; impacts on root growth of king protea explants (patent's reading of the cited data) [2]: no significant impacts

Q: For `O=C(O)c1ccc(O)cc1` [4-Hydroxybenzoic acid], which “activity on growth and photosynthetic rate in tobacco” value [3] is on record?
A: some inhibitory activity

Q: And the “type of new growth” value [1]?
A: type I only

Q: What about the “decrease of living biomass weight compared to the water control” value [1] of the same compound?
A: 85.5%

Q: What about the “S. molesta plants eliminated” value ([1]; 2% concentration) of the same compound?
A: 100%

Q: And the “Living Biomass (mean ± s.d.)” value ([1]; total concentration 0.5%)?
A: 20.1 g

Q: What about the “Living Biomass (mean ± s.d.)” value ([1]; total concentration 1.0%) of the same compound?
A: 4.3 g

Q: What about the “Living Biomass (mean ± s.d.)” value ([1]; total concentration 1.5%) of the same compound?
A: 2.3 g

Q: And the “Living Biomass (mean ± s.d.)” value ([1]; total concentration 2.0%)?
A: 0 g

Q: And the “induced new growth type” value [4]?
A: primarily type I and II

Q: And the “% of Living Biomass/Total Biomass (mean ± s.d.), Type I and II Plants on Water Surface” value [4]?
A: 34.7%

Q: And the “% of Living Biomass/Total Biomass (mean ± s.d.), Type III Plants on Soils” value [4]?
A: 14.3%

Q: And the “% of Living Biomass/Total Biomass (mean ± s.d.), Type I and II Plants on Water Surface” value [4, 13]?
A: 34.7%

Q: And the “% of Living Biomass/Total Biomass (mean ± s.d.), Type III Plants on Soils” value [4, 13]?
A: 14.3%

Q: And the “Shannon-Wiener index, rhizosphere bacterial population” value [5]?
A: decrease

Q: And the mycelial growth [6]?
A: stimulate the mycelial growth

Q: What about the “effect on anthracnose pathogen and N-fixing bacteria” value [7] of the same compound?
A: inhibited

Q: And the “inhibitory activity on the growth of taro” value [8]?
A: weaker inhibitory activity than benzoic acid

Q: What about the “Shannon-Wiener index, rhizosphere fungal populations” value [9] of the same compound?
A: increase

Q: What about the “inhibitory activity in growth of some leaf vegetables” value [10] of the same compound?
A: weaker than adipic acid

Q: And the “growth of Enterbacter ludwigii” value [11]?
A: stimulated the growth

Q: And the “hypha growth and spore proliferation” value [12]?
A: promote the hypha growth and spore proliferation
